Our source for the IC50 values is US8471005B2 (Cephalon, Inc., priority 2008, dated 2013).

The target of one assay is T1, ALK (Homo sapiens, UniProt Q9UM73).
T1 construct: host or cells: baculovirus expression system
Put plainly: ALK Kinase Assay (ELISA/TRF, PLC-γ substrate). The format is biochemical. The following applies: ALK kinase inhibition, 1 μM ATP; read-out: ALK Potency. In short, it runs like this: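 PLC-γ substrate coated at 10 μg/mL in TBS; reaction started with 30 ng/ml ALK, run 15 min at 37° C. Phosphoproduct detected by TRF with Eu-N1-labeled PT66 anti-phosphotyrosine antibody. IC50 from sigmoidal variable-slope fit of percent inhibition versus log concentration.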

The next assay has as its target T2, JAK2 (Homo sapiens, UniProt O60674).
T2 construct: host or cells: baculovirus expression system
Put plainly: Recombinant Human JAK2 Kinase Assay (TRF). The class given is biochemical. The following applies: JAK2 kinase inhibition, 0.2 μM ATP; read-out: JAK2 Potency. In short, it runs like this: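 Europium-labelled PY100 antibody reported tyrosine phosphorylation of a Neutravidin-captured biotinyl 15-mer peptide by JAK2 (baculovirus-expressed, 15 ng/ml). Conditions: 20 mM HEPES pH 7.2, 0.2 μM ATP, 1 mM MnCl2, 0.1% BSA, DMSO 2.5% final, 20 min at room temperature.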

T1 sequence (Q9UM73 19-1620): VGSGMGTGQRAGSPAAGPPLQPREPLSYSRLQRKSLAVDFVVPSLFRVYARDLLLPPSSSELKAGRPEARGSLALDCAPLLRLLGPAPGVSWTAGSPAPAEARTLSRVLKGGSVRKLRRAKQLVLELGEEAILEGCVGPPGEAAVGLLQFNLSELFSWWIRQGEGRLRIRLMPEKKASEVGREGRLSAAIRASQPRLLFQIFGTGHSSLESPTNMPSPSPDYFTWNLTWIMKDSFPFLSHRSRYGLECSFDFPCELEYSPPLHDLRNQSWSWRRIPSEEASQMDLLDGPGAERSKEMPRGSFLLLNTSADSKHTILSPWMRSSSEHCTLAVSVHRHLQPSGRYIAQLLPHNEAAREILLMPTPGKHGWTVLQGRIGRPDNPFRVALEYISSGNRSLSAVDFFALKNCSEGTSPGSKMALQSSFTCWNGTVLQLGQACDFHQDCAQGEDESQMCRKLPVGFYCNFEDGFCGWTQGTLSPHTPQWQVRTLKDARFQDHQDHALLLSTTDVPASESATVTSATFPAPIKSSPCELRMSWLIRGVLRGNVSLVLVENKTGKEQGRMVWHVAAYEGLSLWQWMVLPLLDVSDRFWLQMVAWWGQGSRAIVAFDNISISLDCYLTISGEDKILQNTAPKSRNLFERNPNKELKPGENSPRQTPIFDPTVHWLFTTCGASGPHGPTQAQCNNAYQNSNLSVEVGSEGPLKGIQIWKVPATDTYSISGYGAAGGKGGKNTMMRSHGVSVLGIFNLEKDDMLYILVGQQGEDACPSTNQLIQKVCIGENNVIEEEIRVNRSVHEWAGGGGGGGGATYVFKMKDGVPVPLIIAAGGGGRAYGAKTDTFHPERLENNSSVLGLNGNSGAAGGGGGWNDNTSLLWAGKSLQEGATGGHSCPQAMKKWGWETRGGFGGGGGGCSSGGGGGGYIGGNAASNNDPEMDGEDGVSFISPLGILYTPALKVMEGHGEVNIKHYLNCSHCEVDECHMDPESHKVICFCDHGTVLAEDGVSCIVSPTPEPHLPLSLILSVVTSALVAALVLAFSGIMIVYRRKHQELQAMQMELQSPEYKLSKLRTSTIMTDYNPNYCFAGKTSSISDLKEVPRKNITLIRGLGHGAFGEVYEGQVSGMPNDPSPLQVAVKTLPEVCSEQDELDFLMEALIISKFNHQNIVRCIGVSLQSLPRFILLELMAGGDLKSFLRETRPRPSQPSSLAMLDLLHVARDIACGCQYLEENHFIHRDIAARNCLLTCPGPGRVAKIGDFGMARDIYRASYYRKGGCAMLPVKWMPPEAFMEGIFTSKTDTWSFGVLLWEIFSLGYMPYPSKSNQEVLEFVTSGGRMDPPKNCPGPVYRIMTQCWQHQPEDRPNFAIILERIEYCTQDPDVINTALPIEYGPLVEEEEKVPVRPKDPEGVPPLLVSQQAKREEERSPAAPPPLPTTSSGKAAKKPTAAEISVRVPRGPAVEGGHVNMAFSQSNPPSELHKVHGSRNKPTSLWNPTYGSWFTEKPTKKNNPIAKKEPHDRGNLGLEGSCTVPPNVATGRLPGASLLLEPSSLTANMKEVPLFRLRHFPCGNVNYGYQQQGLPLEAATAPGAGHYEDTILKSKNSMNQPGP
T2 sequence (O60674 whole entry): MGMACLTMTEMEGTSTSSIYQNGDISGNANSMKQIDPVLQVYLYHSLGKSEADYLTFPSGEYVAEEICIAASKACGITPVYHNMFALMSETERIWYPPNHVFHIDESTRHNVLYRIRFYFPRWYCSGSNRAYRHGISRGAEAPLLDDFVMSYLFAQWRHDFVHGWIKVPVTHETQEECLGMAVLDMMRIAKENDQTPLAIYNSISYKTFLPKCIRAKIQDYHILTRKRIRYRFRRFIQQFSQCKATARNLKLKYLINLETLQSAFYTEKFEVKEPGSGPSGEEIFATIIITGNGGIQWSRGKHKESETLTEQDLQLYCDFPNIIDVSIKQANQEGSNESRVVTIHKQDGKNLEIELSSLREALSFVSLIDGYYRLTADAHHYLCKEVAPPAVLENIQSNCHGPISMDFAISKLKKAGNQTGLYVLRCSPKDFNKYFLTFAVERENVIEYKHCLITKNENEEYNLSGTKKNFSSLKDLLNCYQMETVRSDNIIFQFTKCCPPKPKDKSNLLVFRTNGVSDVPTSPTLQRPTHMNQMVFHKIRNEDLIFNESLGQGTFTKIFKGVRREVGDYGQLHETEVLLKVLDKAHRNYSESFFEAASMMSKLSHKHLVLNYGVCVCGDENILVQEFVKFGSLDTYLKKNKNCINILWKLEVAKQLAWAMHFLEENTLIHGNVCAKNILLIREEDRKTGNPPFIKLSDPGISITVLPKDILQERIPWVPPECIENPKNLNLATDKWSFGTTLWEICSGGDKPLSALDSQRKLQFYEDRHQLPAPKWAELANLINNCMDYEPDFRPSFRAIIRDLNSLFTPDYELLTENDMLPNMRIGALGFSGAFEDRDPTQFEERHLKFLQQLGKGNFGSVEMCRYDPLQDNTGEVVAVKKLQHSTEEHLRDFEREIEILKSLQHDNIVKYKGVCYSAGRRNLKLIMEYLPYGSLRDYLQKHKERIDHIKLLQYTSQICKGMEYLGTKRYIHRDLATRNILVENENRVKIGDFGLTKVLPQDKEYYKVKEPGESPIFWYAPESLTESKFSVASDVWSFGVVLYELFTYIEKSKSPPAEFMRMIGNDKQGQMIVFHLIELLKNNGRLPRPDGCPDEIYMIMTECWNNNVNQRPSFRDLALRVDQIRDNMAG

With `COc1c(Nc2ncc3ccc(-c4ccccc4N(C)S(C)(=O)=O)n3n2)cccc1C(=O)N1CCN(CCO)CC1` [Example 1232, N-[2-(2-{3-[4-(2-Hydroxy-ethyl)-piperazine-1-carbonyl]-2-methoxy-phenylamino}-pyrrolo[2,1-f][1,2,4]triazin-7-yl)-phenyl]-N-methyl-methanesulfonamide], the IC50 on ALK is 100 to 1000 nM; on JAK2, more than 10000 nM.
The matching figures for `COc1ccccc1-c1ccc2cnc(Nc3cccc(C(=O)N4CCN(CCO)CC4)c3OC)nn12` [Example 1233, [4-(2-Hydroxy-ethyl)-piperazin-1-yl]-{2-methoxy-3-[7-(2-methoxy-phenyl)-pyrrolo[2,1-f][1,2,4]triazin-2-ylamino]-phenyl}-methanone]: 100 to 1000 nM and 1000 to 10000 nM.
Turning to `COc1cc(CN2CCC(O)CC2)ccc1Nc1ncc2ccc(-c3ccccc3N(C)S(C)(=O)=O)n2n1` [Example 1234, N-(2-{2-[4-(4-Hydroxy-piperidin-1-ylmethyl)-2-methoxy-phenylamino]-pyrrolo[2,1-f][1,2,4]triazin-7-yl}-phenyl)-N-methyl-methanesulfonamide], the IC50 is less than 100 nM on ALK and 1000 to 10000 nM on JAK2.
On to `COc1cc(CN2CCC(O)CC2)ccc1Nc1ncc2ccc(-c3ccccc3OC)n2n1` [Example 1235, 1-{3-Methoxy-4-[7-(2-methoxy-phenyl)-pyrrolo[2,1-f][1,2,4]triazin-2-ylamino]-benzyl}-piperidin-4-ol], for which the IC50 was less than 100 nM on ALK and 100 to 1000 nM at JAK2.
The like results for `COc1cc(CN2C[C@@H](O)[C@H](O)C2)ccc1Nc1ncc2ccc(-c3ccccc3N(C)S(C)(=O)=O)n2n1` [Example 1236, N-(2-{2-[4-((3R,4R)-3,4-Dihydroxy-pyrrolidin-1-ylmethyl)-2-methoxy-phenylamino]-pyrrolo[2,1-f][1,2,4]triazin-7-yl}-phenyl)-N-methyl-methanesulfonamide] were, in that order, less than 100 nM and 1000 to 10000 nM.
The like results for `COc1cc(CN2C[C@@H](O)[C@H](O)C2)ccc1Nc1ncc2ccc(-c3ccccc3OC)n2n1` [Example 1237, (3R,4R)-1-{3-Methoxy-4-[7-(2-methoxy-phenyl)-pyrrolo[2,1-f][1,2,4]triazin-2-ylamino]-benzyl}-pyrrolidine-3,4-diol] were, in that order, less than 100 nM and 100 to 1000 nM.
The matching figures for `COc1cc(CN2CCN(C(=O)CNC(=O)OC(C)(C)C)CC2)ccc1Nc1ncc2ccc(-c3ccccc3N(C)S(C)(=O)=O)n2n1` [Example 1239, {2-[4-(4-{7-[2-(Methanesulfonyl-methyl-amino)-phenyl]-pyrrolo[2,1-f][1,2,4]triazin-2-ylamino}-3-methoxy-benzyl)-piperazin-1-yl]-2-oxo-ethyl}-carbamic acid tert-butyl ester]: less than 100 nM and 100 to 1000 nM.
Turning to `COc1cc(CN2CCN(C(C)=O)CC2)ccc1Nc1ncc2ccc(-c3ccccc3N(C)S(C)(=O)=O)n2n1` [Example 1240, N-(2-{2-[4-(4-Acetyl-piperazin-1-ylmethyl)-2-methoxy-phenylamino]-pyrrolo[2,1-f][1,2,4]triazin-7-yl}-phenyl)-N-methyl-methanesulfonamide], the IC50 on ALK was less than 100 nM; at JAK2, 100 to 1000 nM.
With `COc1cc(CN2CCN(C(=O)CN)CC2)ccc1Nc1ncc2ccc(-c3ccccc3N(C)S(C)(=O)=O)n2n1` [Example 1241, N-[2-(2-{4-[4-(2-Amino-acetyl)-piperazin-1-ylmethyl]-2-methoxy-phenylamino}-pyrrolo[2,1-f][1,2,4]triazin-7-yl)-phenyl]-N-methyl-methanesulfonamide], the results for the IC50 on ALK and at JAK2 were less than 100 nM and 1000 to 10000 nM, respectively.
The like results for `COc1cc(CN2CCN(C(=O)CNC(=O)OC(C)(C)C)CC2)ccc1Nc1ncc2ccc(-c3ccccc3OC)n2n1` [Example 1242, [2-(4-{3-Methoxy-4-[7-(2-methoxy-phenyl)-pyrrolo[2,1-f][1,2,4]triazin-2-ylamino]-benzyl}-piperazin-1-yl)-2-oxo-ethyl]-carbamic acid tert-butyl ester] were, in that order, 100 to 1000 nM and 100 to 1000 nM.
With `COc1cc(CN2CCN(CC(O)CF)CC2)ccc1Nc1ncc2ccc(-c3ccccc3OC)n2n1` (stereo not drawn) [Example 1243, 1-Fluoro-3-(4-{3-methoxy-4-[7-(2-methoxy-phenyl)-pyrrolo[2,1-f][1,2,4]triazin-2-ylamino]-benzyl}-piperazin-1-yl)-propan-2-ol], the IC50 at ALK is less than 100 nM; at JAK2, 100 to 1000 nM.
The matching figures for `COc1cc(CN2CCN(C(=O)CN)CC2)ccc1Nc1ncc2ccc(-c3ccccc3OC)n2n1` [Example 1244, 2-Amino-1-(4-{3-methoxy-4-[7-(2-methoxy-phenyl)-pyrrolo[2,1-f][1,2,4]triazin-2-ylamino]-benzyl}-piperazin-1-yl)-ethanone]: less than 100 nM and 100 to 1000 nM.
In the case of `COc1cc([C@]2(C#N)CC[C@H](N3CCOCC3)CC2)ccc1Nc1ncc2ccc(-c3ccccc3N(C)S(C)(=O)=O)n2n1` [Example 1245, N-{2-[2-({4-[trans-1-cyano-4-(morpholin-4-yl)cyclohexyl]-2-methoxyphenyl}amino)pyrrolo[2,1-f][1,2,4]triazin-7-yl]phenyl}-N-methylmethanesulfonamide], the IC50 was less than 100 nM on ALK and 100 to 1000 nM on JAK2.
The matching figures for `COc1cc(C2(C#N)CCC(N3CCOCC3)CC2)ccc1Nc1ncc2ccc(-c3ccccc3OC)n2n1` (stereo not drawn) [Example 1246, trans-1-[3-methoxy-4-[[7-(2-methoxyphenyl)pyrrolo[2,1-f][1,2,4]triazin-2-yl]amino]phenyl]-4-morpholino-cyclohexanecarbonitrile]: less than 100 nM and 100 to 1000 nM.
The like results for `COc1cc([C@H]2CC[C@H](N3CCOCC3)CC2)ccc1Nc1ncc2ccc(-c3ccccc3OC)n2n1` [Example 1247, N-{2-methoxy-4-[trans-4-(morpholin-4-yl)cyclohexyl]phenyl}-7-(2-methoxyphenyl)pyrrolo[2,1-f][1,2,4]triazin-2-amine] were, in that order, less than 100 nM and 100 to 1000 nM.
The matching figures for `COc1cc([C@H]2CC[C@H](N3CCOCC3)CC2)ccc1Nc1ncc2ccc(-c3ccccc3N(C)S(C)(=O)=O)n2n1` [Example 1248, N-{2-[2-({2-methoxy-4-[trans-4-(morpholin-4-yl)cyclohexyl]phenyl}amino)pyrrolo[2,1-f][1,2,4]triazin-7-yl]phenyl}-N-methylmethanesulfonamide]: less than 100 nM and 100 to 1000 nM.
Turning to `COc1cc([C@H]2CC[C@@H](N3CCOCC3)CC2)ccc1Nc1ncc2ccc(-c3ccccc3N(C)S(C)(=O)=O)n2n1` [Example 1249, N-{2-[2-({2-methoxy-4-[cis-4-(morpholin-4-yl)cyclohexyl]phenyl}amino)pyrrolo[2,1-f][1,2,4]triazin-7-yl]phenyl}-N-methylmethanesulfonamide], the values for the IC50 on ALK and at JAK2 were less than 100 nM and 1000 to 10000 nM, respectively.
Turning to `CN1CCN(c2ncc3ccc(-c4ccccc4N(C)S(C)(=O)=O)n3n2)CC1` [Example 1250, N-Methyl-N-{2-[2-(4-methyl-piperazin-1-yl)-pyrrolo[2,1-f][1,2,4]triazin-7-yl]-phenyl}-methanesulfonamide], the IC50 lay in the range of 1000 to 10000 nM at ALK and 100 to 1000 nM at JAK2.
Regarding `COc1cc(CN2CCN(C)CC2)ccc1Nc1ncc2ccc(-c3ccccc3N(C)S(C)(=O)=O)n2n1` [Example 1251, N-(2-{2-[2-Methoxy-4-(4-methyl-piperazin-1-ylmethyl)-phenylamino]-pyrrolo[2,1-f][1,2,4]triazin-7-yl}-phenyl)-N-methyl-methanesulfonamide], the IC50 was less than 100 nM at ALK and 1000 to 10000 nM at JAK2.
Turning to `COc1cc(CN2CCN(C)CC2)ccc1Nc1ncc2ccc(-c3ccccc3OC)n2n1` [Example 1252, [2-Methoxy-4-(4-methyl-piperazin-1-ylmethyl)-phenyl]-[7-(2-methoxy-phenyl)-pyrrolo[2,1-f][1,2,4]triazin-2-yl]-amine], the figures for the IC50 at ALK and at JAK2 were less than 100 nM and 100 to 1000 nM, respectively.
In the case of `COc1cc(C2(C#N)CCC(O)CC2)ccc1Nc1ncc2ccc(-c3ccccc3N(C)S(C)(=O)=O)n2n1` (stereo not drawn) [Example 1253, N-(2-{2-[4-(1-Cyano-4-hydroxy-cyclohexyl)-2-methoxy-phenylamino]-pyrrolo[2,1-f][1,2,4]triazin-7-yl}-phenyl)-N-methyl-methanesulfonamide], the IC50 on ALK is less than 100 nM; at JAK2, 100 to 1000 nM.
Regarding `COc1cc(C2(NC(=O)C(F)(F)F)CCC2)ccc1Nc1ncc2ccc(-c3ccccc3N(C)S(C)(=O)=O)n2n1` [Example 1254, 2,2,2-Trifluoro-N-[1-(4-{7-[2-(methanesulfonyl-methyl-amino)-phenyl]-pyrrolo[2,1-f][1,2,4]triazin-2-ylamino}-3-methoxy-phenyl)-cyclobutyl]-acetamide], the values for the IC50 at ALK and at JAK2 were 100 to 1000 nM and 1000 to 10000 nM, respectively.
For the compound `COc1cc(C2CCN(CC(N)=O)CC2)ccc1Nc1ncc2c(C)cc(-c3ccccc3N(C)S(C)(=O)=O)n2n1` [Example 1255, 2-[4-(4-{7-[2-(Methanesulfonyl-methyl-amino)-phenyl]-5-methyl-pyrrolo[2,1-f][1,2,4]triazin-2-ylamino}-3-methoxy-phenyl)-piperidin-1-yl]-acetamide], the IC50 on ALK was less than 100 nM; at JAK2, 100 to 1000 nM.
For `COc1cc(C2CCN(CC(N)=O)CC2)ccc1Nc1ncc2ccc(-c3cn(C)nc3N(C)S(C)(=O)=O)n2n1` [Example 1256, 2-[4-(4-{7-[3-(Methanesulfonyl-methyl-amino)-1-methyl-1H-pyrazol-4-yl]-pyrrolo[2,1-f][1,2,4]triazin-2-ylamino}-3-methoxy-phenyl)-piperidin-1-yl]-acetamide], the IC50 was less than 100 nM on ALK and 1000 to 10000 nM on JAK2.
